Source: PMC4052451 (Journal of medicinal chemistry, 2013)
Blank lines part the entries; values can stand above or below the compound they belong to. *: point of attachment. Dnp = O=[N+]([O-])c1ccc(*)c([N+](=O)[O-])c1; Mca = COc1ccc2c(CC(=O)*)cc(=O)oc2c1

Columns and labels:
C-domain of sACE-1 = C-domain of sACE-1 (Homo sapiens, UniProt P12821); assay: Reversible inhibition of the C-domain of sACE-1, fluorogenic substrate Abz-LFK; format: biochemical; conditions: Abz-LFK(Dnp)-OH 7.5, 10, 15 µM; absence of co-reactants
N-domain of sACE-1 = N-domain of sACE-1 (Homo sapiens, UniProt P12821); assay: Reversible inhibition of the N-domain of sACE-1, fluorogenic substrate Abz-SDK; format: biochemical; conditions: Abz-SDK(Dnp)P-OH 7.5, 10, 15 µM; absence of co-reactants
[1] = ref [15],[24]; cited from earlier work
[2] = in SHR; ref [38]; cited from earlier work
ACE = conditions: ref [38]; cited from earlier work
sACE-1 = sACE-1 (Homo sapiens, UniProt P12821); conditions: generic substrate of previous study; ref [30]; cited from earlier work
Chain of sACE-1 (P12821 30-1261): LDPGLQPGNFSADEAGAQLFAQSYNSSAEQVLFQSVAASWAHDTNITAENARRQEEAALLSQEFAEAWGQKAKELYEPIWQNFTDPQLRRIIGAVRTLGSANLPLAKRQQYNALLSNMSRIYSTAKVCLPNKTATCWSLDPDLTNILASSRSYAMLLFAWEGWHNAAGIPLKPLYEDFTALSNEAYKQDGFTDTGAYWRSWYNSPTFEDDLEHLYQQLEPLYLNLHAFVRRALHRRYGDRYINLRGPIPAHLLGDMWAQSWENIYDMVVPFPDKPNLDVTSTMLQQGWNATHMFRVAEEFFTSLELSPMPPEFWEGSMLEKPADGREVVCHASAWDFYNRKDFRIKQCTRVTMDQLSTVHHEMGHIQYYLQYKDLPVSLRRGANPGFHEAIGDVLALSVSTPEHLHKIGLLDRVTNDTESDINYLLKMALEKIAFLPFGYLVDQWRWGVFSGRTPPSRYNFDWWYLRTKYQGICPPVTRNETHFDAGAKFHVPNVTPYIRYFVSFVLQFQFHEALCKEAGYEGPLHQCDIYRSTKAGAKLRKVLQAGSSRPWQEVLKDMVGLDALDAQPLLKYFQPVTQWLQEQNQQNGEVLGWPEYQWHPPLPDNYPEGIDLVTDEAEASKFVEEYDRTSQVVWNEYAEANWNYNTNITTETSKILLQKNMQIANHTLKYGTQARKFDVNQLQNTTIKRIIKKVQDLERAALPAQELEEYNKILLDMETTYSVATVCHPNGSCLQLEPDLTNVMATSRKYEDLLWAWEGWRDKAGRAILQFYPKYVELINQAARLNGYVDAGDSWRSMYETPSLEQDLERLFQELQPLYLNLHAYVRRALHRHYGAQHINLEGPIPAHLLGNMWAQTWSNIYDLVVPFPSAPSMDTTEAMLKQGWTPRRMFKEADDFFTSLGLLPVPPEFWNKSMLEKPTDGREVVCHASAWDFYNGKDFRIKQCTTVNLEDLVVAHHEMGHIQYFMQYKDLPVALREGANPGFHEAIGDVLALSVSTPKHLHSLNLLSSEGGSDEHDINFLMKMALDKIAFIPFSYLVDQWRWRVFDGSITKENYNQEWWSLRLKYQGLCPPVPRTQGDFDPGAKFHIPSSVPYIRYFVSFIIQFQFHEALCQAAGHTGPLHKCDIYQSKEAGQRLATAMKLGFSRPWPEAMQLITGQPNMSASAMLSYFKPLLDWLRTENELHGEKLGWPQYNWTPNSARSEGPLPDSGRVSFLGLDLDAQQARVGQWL

Chain of C-domain of sACE-1 (P12821 30-1261): as above
Chain of N-domain of sACE-1 (P12821 30-1261): as above

Inhibition mode by Dixon plot (C-domain) (C-domain of sACE-1): competitive inhibitors | Inhibition mode by Dixon plot (N-domain) (N-domain of sACE-1): competitive inhibitors
Compound: NCCCC[C@H](N[C@@H](CCc1ccccc1)C(=O)O)C(=O)N1CCC[C@H]1C(=O)O [Lisinopril]

Compound: Ac-Asp-(L)Pheψ(PO2-CH2)(L)Ala-Ala-NH2 [RXP407]
Effect on blood pressure regulation [1]: no effect on blood pressure regulation

Compound: Ile-Pro-Pro
lowers blood pressure [2]: ≤ 30 mmHg | IC50 (ACE): 5 µM

Compound: Mca-RPPGFSAFK(Dnp)-OH (SMILES COc1ccc2c(CC(=O)N[C@@H](CCCNC(=N)N)C(=O)N3CCC[C@H]3C(=O)N3CCC[C@H]3C(=O)NCC(=O)N[C@@H](Cc3ccccc3)C(=O)N[C@@H](CO)C(=O)N[C@@H](C)C(=O)N[C@@H](Cc3ccccc3)C(=O)N[C@@H](CCCCNc3ccc([N+](=O)[O-])cc3[N+](=O)[O-])C(=O)O)cc(=O)oc2c1)
Km (sACE-1): 4.5 ± 0.6 µM | kcat (sACE-1): 20.33 ± 0.833 s⁻¹
